The values below come from US4051129A, “Process for preparing 7-methoxycephalosporin compounds” (Sankyo Company Limited, priority 1974, dated 1977).

Common to all, as to format: cell-based
The test system of test [1] is Salmonella enteritidis Gartner. Kind of test: Minimum Inhibitory Concentration, Salmonella enteritidis Gartner. The note with it: Salmonella enterica; VI: Salmonella enteritidis Gartner.
Test [2] relates to Shigella flexneri Komagome. Kind of test: Minimum Inhibitory Concentration, Shigella flexneri Komagome. The note with it: III: Shigella flexneri Komagome.
Test [3] concerns Klebsiella neumoniae 846 (resistant to CER). As to the kind of experiment: Minimum Inhibitory Concentration, Klebsiella neumoniae 846 (resistant to CER). The note with it: read-out: Minimum Inhibitory Concentration.
Test [4] deals with Proteus vulgaris. Kind of test: Minimum Inhibitory Concentration, Proteus vulgaris. The note with it: V: Proteus vulgaris.
For test [5], the system named is Staphylococcus aureus 209 P. As to the kind of experiment: Minimum Inhibitory Concentration, Staphylococcus aureus 209 P. The note with it: IA: Staphylococcus aureus 209 P.
Test [6] deals with Klebsiella neumoniae 806. Kind of test: Minimum Inhibitory Concentration, Klebsiella neumoniae 806. The note with it: Klebsiella, 806, read-out: Minimum Inhibitory Concentration.
In test [7] the test system is Staphylococcus aureus (resistant to CP and PC). Kind of test: Minimum Inhibitory Concentration, Staphylococcus aureus (resistant to CP and PC). The note with it: IB: Staphylococcus aureus (resistant to CP and PC).
Test [8] concerns Escherichia coli 609 (resistant to CER). Kind of test: Minimum Inhibitory Concentration, Escherichia coli 609 (resistant to CER). The note with it: read-out: Minimum Inhibitory Concentration.
The test system of test [9] is Escherichia coli NIHJ. Kind of test: Minimum Inhibitory Concentration, Escherichia coli NIHJ. The note with it: IIA: Escherichia coli NIHJ.
Setting [10] is: IIB: Escherichia coli 609 (resistant to CER).

Each structure is given as a SMILES string. Converted amounts (≈) assume the structure as drawn. Like-named read-outs stand apart in the source and are kept apart here. Some results are limits rather than exact numbers.

With `CCS(=O)(=O)CC(=O)N[C@]1(OC)C(=O)N2C(C(=O)O)=C(CSc3nnnn3C)CS[C@@H]21` [C2 H5 SO2 / drawing 6, 7β-ethylsulfonylacetamido-7α-methoxy-3-(1-methyl-1H-tetrazol-5-yl)thiomethyl-3-cephem-4-carboxylic acid], the MIC in test [1] is 0.8 µg/mL (≈ 1.62 µM); in test [2] it was 1.5 µg/mL (≈ 3.05 µM).
`CO[C@@]1(NC(=O)CS(C)(=O)=O)C(=O)N2C(C(=O)O)=C(CSc3nnnn3C)CS[C@@H]21` [CH3 SO2 / drawing 6, 7β-methylsulfonylacetamido-7α-methoxy-3-(1-methyl-1H-tetrazol-5-yl)thiomethyl-3-cephem-4-carboxylic acid] yielded an MIC in [2] of 1.5 µg/mL (≈ 3.13 µM).
Consider `CO[C@@]1(NC(=O)CSCCO)C(=O)N2C(C(=O)O)=C(CSc3nnnn3C)CS[C@@H]21` [HOCH2 CH2 S / drawing 6, 7β-(2-hydroxyethylthio)acetamido-7α-methoxy-3-(1-methyl-1H-tetrazol-5-yl)thiomethyl-3-cephem-4-carboxylic acid], for which the MIC in test [3] was determined as 200 µg/mL (≈ 420 µM); in test [1] it was 0.8 µg/mL (≈ 1.68 µM); in test [4], 3.1 µg/mL (≈ 6.5 µM); in test [2] it was 1.5 µg/mL (≈ 3.15 µM); in test [5] it was 0.8 µg/mL (≈ 1.68 µM).
On to `CO[C@@]1(NC(=O)CSCN=[N+]=[N-])C(=O)N2C(C(=O)O)=C(COC(C)=O)CS[C@@H]21` [N3 CH2 S / OCOCH3, 3-acetoxymethyl-7β-azidomethylthioacetamido-7α-methoxy-3-cephem-4-carboxylic acid], for which the MIC in test [3] was more than 200 µg/mL; in [2] it was 6.2 µg/mL (≈ 14.4 µM); in test [6], 6.2 µg/mL (≈ 14.4 µM).
Consider `CO[C@@]1(NC(=O)CSCN=[N+]=[N-])C(=O)N2C(C(=O)O)=C(COC(N)=O)CS[C@@H]21` [N3 CH2 S / OCONH2, 7β-azidomethylthioacetamido-3-carbamoyloxymethyl-7α-methoxy-3-cephem-4-carboxylic acid], for which the MIC in test [3] was more than 400 µg/mL; in test [2], 3.1 µg/mL (≈ 7.17 µM); in test [5], 0.2 µg/mL (≈ 0.462 µM).
With `CO[C@@]1(NC(=O)CSCN=[N+]=[N-])C(=O)N2C(C(=O)O)=C(CSc3nnnn3C)CS[C@@H]21` [N3 CH2 S / drawing 10, 7β-azidomethylthioacetamido-7α-methoxy-3-(1-methyl-1H-tetrazol-5-yl)thiomethyl-3-cephem-4-carboxylic acid], the MIC in [3] is more than 200 µg/mL; in test [1] it was 0.8 µg/mL (≈ 1.64 µM); in test [2], 1.5 µg/mL (≈ 3.08 µM); in [7], 0.4 µg/mL (≈ 0.82 µM); in test [5], 0.4 µg/mL (≈ 0.82 µM).
On to `CO[C@@]1(NC(=O)CS(=O)(=O)CCC#N)C(=O)N2C(C(=O)O)=C(CSc3nnnn3C)CS[C@@H]21` [NC(CH2)2 SO2 / drawing 6, 7β-cyanoethylsulfonyl-acetamido-7α-methoxy-3-(1-methyl-1H-tetrazol-5-yl)thiomethyl-3-cephem-4-carboxylic acid], for which the MIC in [3] was found to be 200 µg/mL (≈ 386 µM); in [1], 0.8 µg/mL (≈ 1.55 µM); in test [2], 3.1 µg/mL (≈ 5.99 µM).
As for `CO[C@@]1(NC(=O)CSCC#N)C(=O)N2C(C(=O)O)=C(COC(C)=O)CS[C@@H]21` [NCCH2 S / OCOCH3, 3-acetoxymethyl-7β-cyanomethylthioacetamido-7α-methoxy-3-cephem-4-carboxylic acid], in test [2], the MIC came out at 3.1 µg/mL (≈ 7.46 µM).
On to `CO[C@@]1(NC(=O)CSCC#N)C(=O)N2C(C(=O)O)=C(COC(N)=O)CS[C@@H]21` [NCCH2 S / OCONH2, 3-carbamoyloxymethyl-7β-cyanomethylthioacetamido-7α-methoxy-3-cephem-4-carboxylic acid], for which the MIC amounted to 1.5 µg/mL (≈ 3.6 µM) in [8] (setting [10]); 1.5 µg/mL (≈ 3.6 µM) in [1]; 3.1 µg/mL (≈ 7.44 µM) in test [2]; 3.1 µg/mL (≈ 7.44 µM) in test [7]; 3.1 µg/mL (≈ 7.44 µM) in test [6].
As for `CO[C@@]1(NC(=O)CSCC#N)C(=O)N2C(C(=O)O)=C(CSc3nnnn3C)CS[C@@H]21` [NCCH2 S / drawing 6, 7β-cyanomethylthioacetamido-7α-methoxy-3-(1-methyl-1H-tetrazol-5-yl)thiomethyl-3-cephem-4-carboxylic acid], the MIC in [1] turned out to be 0.2 µg/mL (≈ 0.424 µM); in [4], 1.5 µg/mL (≈ 3.18 µM); in test [2], 0.8 µg/mL (≈ 1.7 µM); in test [5], 0.2 µg/mL (≈ 0.424 µM); in [6] it was 0.8 µg/mL (≈ 1.7 µM).
In the case of `CO[C@@]1(NC(=O)C[n+]2cc([O-])on2)C(=O)N2C(C(=O)O)=C(CSc3nnnn3C)CS[C@@H]21` [drawing 7 / drawing 6, 7β-(sydnon-3)acetamido-7α-methoxy-3-(1-methyl-1H-tetrazol-5-yl)thiomethyl-3-cephem-4-carboxylic acid], the MIC in [3] was more than 200 µg/mL; in [1] it was 0.8 µg/mL (≈ 1.65 µM); in [2] it was 1.5 µg/mL (≈ 3.1 µM); in test [5], 0.8 µg/mL (≈ 1.65 µM).
For the molecule `CO[C@@]1(NC(=O)CSC(C)C#N)C(=O)N2C(C(=O)O)=C(CSc3nnnn3C)CS[C@@H]21` (stereo partly drawn) [drawing 8 / drawing 6, 7β-(1-cyanoethyl)-acetamido-7α-methoxy-3-(1-methyl-1H-tetrazol-5-yl)thiomethyl-3-cephem-4-carboxylic acid], the MIC worked out at 1.5 µg/mL (≈ 3.09 µM) in test [9]; 400 µg/mL (≈ 824 µM) in [3]; 3.1 µg/mL (≈ 6.38 µM) in [8] (setting [10]); 0.4 µg/mL (≈ 0.824 µM) in test [1]; 0.8 µg/mL (≈ 1.65 µM) in [4]; 1.5 µg/mL (≈ 3.09 µM) in test [2]. Also, the values for the MIC in test [7], in [5] and in test [6] were 0.8 µg/mL (≈ 1.65 µM), 0.4 µg/mL (≈ 0.824 µM) and 1.5 µg/mL (≈ 3.09 µM), respectively.
`C#CCSCC(=O)N[C@]1(OC)C(=O)N2C(C(=O)O)=C(CSc3nnnn3C)CS[C@@H]21` [drawing 9 / drawing 10, 7β-propargylthioacetamido-7α-methoxy-3-(1-methyl-1H-tetrazol-5-yl)thiomethyl-3-cephem-4-carboxylic acid] had an MIC in test [2] of 3.1 µg/mL (≈ 6.59 µM).
Same read-out and setting: under `CO[C@@]1(NC(=O)COc2ccon2)C(=O)N2C(C(=O)O)=C(CSc3nnnn3C)CS[C@@H]21` [drawing 11 / drawing 10, 7β-(3-isoxazolyloxy)acetamido-7α-methoxy-3-(1-methyl-1H-tetrazol-5-yl)thiomethyl-3-cephem-4-carboxylic acid] stands 3.1 µg/mL (≈ 6.41 µM).
For `CO[C@@]1(NC(=O)CSc2ccon2)C(=O)N2C(C(=O)O)=C(CSc3nnnn3C)CS[C@@H]21` [drawing 12 / drawing 10, 7β-(3-isoxazolylthio)acetamido-7α-methoxy-3-(1-methyl-1H-tetrazol-5-yl)thiomethyl-3-cephem-4-carboxylic acid], the MIC is more than 400 µg/mL in test [3]; 0.8 µg/mL (≈ 1.6 µM) in test [1]; 3.1 µg/mL (≈ 6.21 µM) in test [2]; 0.8 µg/mL (≈ 1.6 µM) in [7]; 0.2 µg/mL (≈ 0.4 µM) in test [5].
For `CO[C@@]1(NC(=O)CSc2ccon2)C(=O)N2C(C(=O)O)=C(COC(C)=O)CS[C@@H]21` [drawing 13 / OCOCH3, 3-acetoxymethyl-7β-(3-isoxazolylthio)acetamido-7α-methoxy-3-cephem-4-carboxylic acid], the MIC in [2] came out at 6.2 µg/mL (≈ 14 µM).
Regarding `C#CCSCC(=O)N[C@]1(OC)C(=O)N2C(C(=O)O)=C(COC(C)=O)CS[C@@H]21` [drawing 14 / OCOCH3], the MIC in test [3] was more than 200 µg/mL; in test [8] (Escherichia coli), 12.5 µg/mL (≈ 30.2 µM); in test [1], 6.2 µg/mL (≈ 15 µM); in [4], 12.5 µg/mL (≈ 30.2 µM); in test [2] it was 12.5 µg/mL (≈ 30.2 µM); in [7], 6.2 µg/mL (≈ 15 µM). Further, the figures for the MIC in test [5] and in test [6] were 1.5 µg/mL (≈ 3.62 µM) and 12.5 µg/mL (≈ 30.2 µM), respectively.
